Patent US20220008325A1, “WHITE PINE BARK EXTRACT FOR DECREASING ENDOTHELIN-1 SECRETION, STEM CELL FACTOR SYNTHESIS AND PROTEIN CARBONYLATION” (International Flavors & Fragrances Inc., priority 2018, published 2022)

Tested on: pigmented reconstructed human epidermis (RHE)
Test: Melanin synthesis in ex vivo pigmented reconstructed human epidermis (Fontana-Masson staining)
Type: cell-based
Details: pigmented RHE phototype IV, topical formulation (2% extract or 1% kojic acid), 3 days, 2 applications per day, vs placebo formula
Description: Non-pigmented reconstructed human epidermis (RHE) and pigmented RHE phototype IV were prepared by seeding human melanocytes and keratinocytes in an incubation chamber placed on the epidermal side of a dead dermis at 4×10^5 cells per cm^2, at a 1:20 melanocyte:keratinocyte ratio. After 24 hours, the incubation chamber was removed and the dead dermis was submerged for 3 days. The dead dermis was moved to the air-liquid interface for 8 days prior to treatment. After 8 days of exposure to the air-liquid interface, the pigmented RHE and non-pigmented RHE were contacted with Pinus strobus bark extract, placebo, negative control (no treatment), or positive control (kojic acid). This involved topical application of each formulation for 3 days, 2 applications per day (see FIG. 5). After 3 days, pigmented RHE was incubated for 3 days in the presence of a 1:1 mixture of fresh media and conditioned media from the non-pigmented RHE. The formulations included Heliogel™ (sodium acrylates copolymer, hydrogenated polyisobutene, phospholipids, polyglyceryl-10 stearate, sunflower seed oil; Lucas Meyer Cosmetics), Saboderm TCC (Caprylic/Capric Triglyceride; SABO, S.p.A), and Dekaben C (phenoxyethanol, methylparaben, ethylparaben, butylparaben, isobutylparaben, propylparaben; Jan Dekker BV) in the amounts listed in Table 1. Pigmentation was evaluated by Fontana-Masson staining. […]

`O=c1cc(CO)occ1O` [Kojic acid] was tested, and the “decrease in melanin synthesis” value was 8.1%.
